Values of other authors, collected in patent publication US20190160002A1, “PROCESS FOR PREPARING STERILE ARIPIPRAZOLE FORMULATION” (Mylan Laboratories Ltd., priority 2016, published 2019).

O=C1CCc2ccc(OCCCCN3CCN(c4cccc(Cl)c4Cl)CC3)cc2N1 [aripiprazole monohydrate]
Effect of dry heat sterilization (dry heat sterilization): melted
Effect of gamma-ray and electron beam sterilization (gamma-ray and electron beam): discolored and decomposed
Effect of steam heat sterilization on particles (particles in aqueous suspension, steam heat sterilization): tend to agglomerate
